The target of one experiment is Human LDHA (Homo sapiens (Human), UniProt P00338). Description: human LDHA primary biochemical assay. Conditions: biochemical LDHA inhibitory activity, assay of Example 1; activity level classes defined in nM. A digest of the protocol:
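Human LDHA at 2 nM with 0.06 mM NADH and 0.2 mM sodium pyruvate in 200 mM Tris HCl pH 7.4, 100 μM EDTA, 0.01% TWEEN-20 (final). NADH consumption coupled to resazurin/diaphorase (0.037 mM; 0.133 mg/mL); inhibition read by fluorescence.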

The subject of a further experiment is MiaPaCa2 cells. Description: cell-based HT lactate assay by colorimetric/fluorometric detection (cellular inhibition of lactate production). A digest of the protocol: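 Miniaturised colorimetric/fluorometric lactate kit assay, about 3.5 h total, measuring cellular lactate production. MiaPaCa2 seeded at 500 cells/well, a density chosen so lactate falls near 90% of the standard curve range.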

[1] abbreviates: Homo sapiens, MIA PaCa-2, assay of Example 6.

As for `NS(=O)(=O)c1ccc(Cc2c(-c3ccc(F)c(-c4ccc(Cl)c(F)c4)c3)nn(-c3nc(C(=O)O)cs3)c2CC2CC2)cc1F` [Compound 144, 2-(3-(4′-chloro-3′,6-difluoro-[1,1′-biphenyl]-3-yl)-5-(cyclopropylmethyl)-4-(3-fluoro-4-sulfamoylbenzyl)-1H-pyrazol-1-yl)thiazole-4-carboxylic acid], the IC50 against Human LDHA was less than 100 nM; in the experiment on MiaPaCa2 cells (setting [1]) it was less than 1000 nM.
Take `Cc1ccc(C#Cc2cc(-c3nn(-c4nc(C(=O)O)cs4)c(CCC4CC4)c3Cc3ccc(S(N)(=O)=O)c(F)c3)ccc2F)s1` [Compound 113, 2-(5-(2-cyclopropylethyl)-3-(4-fluoro-3-((5-methylthiophen-2-yl)ethynyl)phenyl)-4-(3-fluoro-4-sulfamoylbenzyl)-1H-pyrazol-1-yl)thiazole-4-carboxylic acid]: the results for the IC50 against Human LDHA and with MiaPaCa2 cells (setting [1]) were less than 100 nM and less than 1000 nM, respectively.
In the case of `NS(=O)(=O)c1ccc(Cc2c(-c3cccc(C#Cc4ccc(Cl)s4)c3)nn(-c3nc(C(=O)O)cs3)c2CC2CC2)cc1F` [Compound 118, 2-(3-(3-((5-chlorothiophen-2-yl)ethynyl)phenyl)-5-(cyclopropylmethyl)-4-(3-fluoro-4-sulfamoylbenzyl)-1H-pyrazol-1-yl)thiazole-4-carboxylic acid], the 50% inhibitory concentration (IC50) against Human LDHA was less than 100 nM; with MiaPaCa2 cells (setting [1]), less than 1000 nM.
On the same counts, the results for `Cc1ccc(-c2cc(-c3nn(-c4nc(C(=O)O)cs4)c(CC4CC4)c3Cc3ccc(S(N)(=O)=O)c(F)c3)ccc2F)cc1F` [Compound 137, 2-(5-(cyclopropylmethyl)-3-(3′,6-difluoro-4′-methyl-[1,1′-biphenyl]-3-yl)-4-(3-fluoro-4-sulfamoylbenzyl)-1H-pyrazol-1-yl)thiazole-4-carboxylic acid] are less than 100 nM and less than 1000 nM.
With `NS(=O)(=O)c1ccc(Cc2c(-c3ccc(F)c(C4=CCCCC4)c3)nn(-c3nc(C(=O)O)cs3)c2CC2CC2)cc1F` [Compound 146, 2-(5-(cyclopropylmethyl)-3-(6-fluoro-2′,3′,4′,5′-tetrahydro-[1,1′-biphenyl]-3-yl)-4-(3-fluoro-4-sulfamoylbenzyl)-1H-pyrazol-1-yl)thiazole-4-carboxylic acid], the IC50 at Human LDHA was less than 100 nM; in the experiment with MiaPaCa2 cells (setting [1]), less than 1000 nM.
Turning to `Cc1cccc(-c2cc(-c3nn(-c4nc(C(=O)O)cs4)c(CC4CC4)c3Cc3ccc(S(N)(=O)=O)c(F)c3)ccc2F)c1` [Compound 141], the 50% inhibitory concentration (IC50) is less than 100 nM on Human LDHA and less than 1000 nM in the experiment on MiaPaCa2 cells (assay of Example 6).
`CC1CCCC=C1c1cc(-c2nn(-c3nc(C(=O)O)cs3)c(CC3CC3)c2Cc2ccc(S(N)(=O)=O)c(F)c2)ccc1F` (centres unmarked) [Compound 103, 2-(5-(cyclopropylmethyl)-3-(6-fluoro-2′-methyl-2′,3′,4′,5′-tetrahydro-[1,1′-biphenyl]-3-yl)-4-(3-fluoro-4-sulfamoylbenzyl)-1H-pyrazol-1-yl)thiazole-4-carboxylic acid]: the results for the IC50 against Human LDHA and in the experiment with MiaPaCa2 cells (setting [1]) were less than 100 nM and less than 1000 nM, respectively.
In the case of `NS(=O)(=O)c1ccc(Cc2c(-c3cccc(-c4ccc(Cl)c(F)c4)c3)nn(-c3nc(C(=O)O)cs3)c2CC2CC2)cc1F` [Compound 164, 2-(3-(4′-chloro-3′-fluoro-[1,1′-biphenyl]-3-yl)-5-(cyclopropylmethyl)-4-(3-fluoro-4-sulfamoylbenzyl)-1H-pyrazol-1-yl)thiazole-4-carboxylic acid], the IC50 against Human LDHA is less than 100 nM; in the experiment with MiaPaCa2 cells (setting [1]), less than 1000 nM.
In the case of `NS(=O)(=O)c1ccc(Cc2c(-c3ccc(F)c(-c4ccc(C(F)(F)F)cc4)c3)nn(-c3nc(C(=O)O)cs3)c2CC2CC2)cc1F` [Compound 138, 2-(5-(cyclopropylmethyl)-3-(6-fluoro-4′-(trifluoromethyl)-[1,1′-biphenyl]-3-yl)-4-(3-fluoro-4-sulfamoylbenzyl)-1H-pyrazol-1-yl)thiazole-4-carboxylic acid], the IC50 against Human LDHA was less than 100 nM; in the experiment with MiaPaCa2 cells (setting [1]), less than 1000 nM.
For `Cc1ccc(C#Cc2cccc(-c3nn(-c4nc(C(=O)O)cs4)c(C4CC45CC5)c3Cc3ccc(S(N)(=O)=O)c(F)c3)c2)s1` (centres unmarked) [Compound 131, 2-(4-(3-fluoro-4-sulfamoylbenzyl)-3-(3-((5-methylthiophen-2-yl)ethynyl)phenyl)-5-(spiro[2.2]pentan-1-yl)-1H-pyrazol-1-yl)thiazole-4-carboxylic acid], the IC50 against Human LDHA was less than 100 nM; with MiaPaCa2 cells (setting [1]), less than 1000 nM.
For `Cc1ccc(C#Cc2cccc(-c3nn(-c4nc(C(=O)NC#N)cs4)c(CC4CC4)c3Cc3ccc(S(N)(=O)=O)c(F)c3)c2)s1` [Compound 179, N-cyano-2-(5-(cyclopropylmethyl)-4-(3-fluoro-4-sulfamoylbenzyl)-3-(3-((5-methylthiophen-2-yl)ethynyl)phenyl)-1H-pyrazol-1-yl)thiazole-4-carboxamide], the results for the IC50 against Human LDHA and in the experiment with MiaPaCa2 cells (setting [1]) were 1000 to 57000 nM and more than 57000 nM, respectively.
Turning to `CC1(C)CC=C(c2cc(-c3nn(-c4nc(C(=O)O)cs4)c(CC4CC4)c3Cc3ccc(S(N)(=O)=O)c(F)c3)ccc2F)CC1` [Compound 106, 2-(5-(cyclopropylmethyl)-3-(6-fluoro-4′,4′-dimethyl-2′,3′,4′,5′-tetrahydro-[1,1′-biphenyl]-3-yl)-4-(3-fluoro-4-sulfamoylbenzyl)-1H-pyrazol-1-yl) thiazole-4-carboxylic acid], the values for the IC50 on Human LDHA and in the experiment on MiaPaCa2 cells (setting [1]) were less than 100 nM and less than 1000 nM, respectively.
With `Cc1cnc(C#Cc2cccc(-c3nn(-c4nc(C(=O)O)cs4)c(CC4CC4)c3Cc3ccc(S(N)(=O)=O)c(F)c3)c2)o1` [Compound 122, 2-(5-(cyclopropylmethyl)-4-(3-fluoro-4-sulfamoylbenzyl)-3-(3-((5-methyloxazol-2-yl)ethynyl)phenyl)-1H-pyrazol-1-yl)thiazole-4-carboxylic acid], the half-inhibitory concentration (IC50) at Human LDHA was less than 100 nM; in the experiment with MiaPaCa2 cells (setting [1]), less than 1000 nM.
Take `Cc1cnc(C#Cc2cc(-c3nn(-c4nc(C(=O)O)cs4)c(CC4CC4)c3Cc3ccc(S(N)(=O)=O)c(F)c3)ccc2F)s1` [Compound 114, 2-(5-(cyclopropylmethyl)-3-(4-fluoro-3-((5-methylthiazol-2-yl)ethynyl)phenyl)-4-(3-fluoro-4-sulfamoylbenzyl)-1H-pyrazol-1-yl) thiazole-4-carboxylic acid]: the IC50 on Human LDHA is less than 100 nM; in the experiment on MiaPaCa2 cells (setting [1]), less than 1000 nM.
In the case of `NS(=O)(=O)c1ccc(Cc2c(-c3ccc(F)c(-c4cccc(Cl)c4)c3)nn(-c3nc(C(=O)O)cs3)c2CC2CC2)cc1F` [Compound 149, 2-(3-(3′-chloro-6-fluoro-[1,1′-biphenyl]-3-yl)-5-(cyclopropylmethyl)-4-(3-fluoro-4-sulfamoylbenzyl)-1H-pyrazol-1-yl)thiazole-4-carboxylic acid], the results for the IC50 against Human LDHA and in the experiment with MiaPaCa2 cells (setting [1]) were less than 100 nM and less than 1000 nM, respectively.
`NS(=O)(=O)c1ccc(Cc2c(-c3ccc(F)c(-c4ccc(Cl)cc4)c3)nn(-c3nc(C(=O)O)cs3)c2CC2CC2)cc1F` [Compound 139, 2-(3-(4′-chloro-6-fluoro-[1,1′-biphenyl]-3-yl)-5-(cyclopropylmethyl)-4-(3-fluoro-4-sulfamoylbenzyl)-1H-pyrazol-1-yl)thiazole-4-carboxylic acid]: the half-maximal inhibitory concentration (IC50) at Human LDHA is less than 100 nM; with MiaPaCa2 cells (setting [1]), less than 1000 nM.
On the same counts, the results for `Cc1ccc([C@H]2C[C@@H](c3cccc(-c4nn(-c5nc(C(=O)O)cs5)c(CC5CC5)c4Cc4ccc(S(N)(=O)=O)c(F)c4)c3)C2)s1` [Compound 132, 2-(5-(cyclopropylmethyl)-4-(3-fluoro-4-sulfamoylbenzyl)-3-(3-((cis)-3-(5-methylthiophen-2-yl)cyclobutyl)phenyl)-1H-pyrazol-1-yl)thiazole-4-carboxylic acid] are less than 100 nM and less than 1000 nM.
The matching figures for `CC(C)(C)c1ccc(-c2cccc(-c3nn(-c4nc(C(=O)O)cs4)c(CC4CC4)c3Cc3ccc(S(N)(=O)=O)c(F)c3)c2)cc1` [Compound 168, 2-(3-(4′-(tert-butyl)-[1,1′-biphenyl]-3-yl)-5-(cyclopropylmethyl)-4-(3-fluoro-4-sulfamoylbenzyl)-1H-pyrazol-1-yl)thiazole-4-carboxylic acid]: 100 to 1000 nM and less than 1000 nM.
Turning to `NS(=O)(=O)c1ccc(Cc2c(-c3cccc(-c4ccc5c(c4)CCCC5)c3)nn(-c3nc(C(=O)O)cs3)c2CC2CC2)cc1F` [Compound 174, 2-(5-(cyclopropylmethyl)-4-(3-fluoro-4-sulfamoylbenzyl)-3-(3-(5,6,7,8-tetrahydronaphthalen-2-yl)phenyl)-1H-pyrazol-1-yl)thiazole-4-carboxylic acid], the IC50 at Human LDHA is 100 to 1000 nM; in the experiment on MiaPaCa2 cells (setting [1]) it was more than 57000 nM.
On to `NS(=O)(=O)c1ccc(Cc2c(-c3cccc(-c4cc(F)cc(F)c4)c3)nn(-c3nc(C(=O)O)cs3)c2CC2CC2)cc1F` [Compound 177, 2-(5-(cyclopropylmethyl)-3-(3′,5′-difluoro-[1,1′-biphenyl]-3-yl)-4-(3-fluoro-4-sulfamoylbenzyl)-1H-pyrazol-1-yl)thiazole-4-carboxylic acid], for which the IC50 at Human LDHA was less than 100 nM; in the experiment with MiaPaCa2 cells (setting [1]), more than 57000 nM.
In the case of `Cc1ccc(-c2cccc(-c3nn(-c4nc(C(=O)O)cs4)c(CC4CC4)c3Cc3ccc(S(N)(=O)=O)c(F)c3)c2)cc1F` [Compound 167, 2-(5-(cyclopropylmethyl)-3-(3′-fluoro-4′-methyl-[1,1′-biphenyl]-3-yl)-4-(3-fluoro-4-sulfamoylbenzyl)-1H-pyrazol-1-yl)thiazole-4-carboxylic acid], the IC50 is less than 100 nM at Human LDHA and less than 1000 nM in the experiment on MiaPaCa2 cells (setting [1]).
Take `Cc1ncc(C#Cc2cc(-c3nn(-c4nc(C(=O)O)cs4)c(CC4CC4)c3Cc3ccc(S(N)(=O)=O)c(F)c3)ccc2F)s1` [Compound 111, 2-(5-(cyclopropylmethyl)-3-(4-fluoro-3-((2-methylthiazol-5-yl)ethynyl)phenyl)-4-(3-fluoro-4-sulfamoylbenzyl)-1H-pyrazol-1-yl)thiazole-4-carboxylic acid]: the IC50 against Human LDHA was less than 100 nM; with MiaPaCa2 cells (setting [1]), less than 1000 nM.

Source of the values: US10954228B2 (NATIONAL INSTITUTES OF HEALTH, UNITED STATES DEPARTMENT OF …, priority 2016, dated 2021).
